The source of these data is patent US5057523A, “Dipeptide quinolone derivatives” (Abbott Laboratories, priority 1989, dated 1991).

Series [1] relates to PSEUDOMONAS AERUGINOSA K799/WT. Kind of series: In vitro antibacterial activity, agar dilution MIC (BHIA). The format is cell-based. The conditions noted are these: BHI agar. A general note: In agar dilution, organisms are placed on agar that contains the substance at set levels.
Series [2] has as its system MICROCOCCUS LUTEUS ATCC 9341. The description is as above. In kind it is cell-based. The conditions noted are these: BHI agar.
In series [3] the test system is ESCHERICHIA COLI JUHL. The description is as above. The conditions noted are these: BHI agar. The format is cell-based.
The subject of series [4] is STREPTOCOCCUS PYOGENES 2548 INDUC. The description is as above. The format is cell-based. The conditions noted are these: BHI agar.
The test system of series [5] is PSEUDOMONAS AERUGINOSA K799/61. Described as above. In kind it is cell-based. The conditions noted are these: BHI agar.
Series [6] deals with MICROCOCCUS LUTEUS ATCC 4698. Described as above. The format is cell-based. The conditions noted are these: BHI agar.
In series [7] the test system is ENTEROBACTER AEROGENES ATCC 13048. The series is described as above. In kind it is cell-based. The conditions noted are these: BHI agar.
For series [8], the system named is ESCHERICHIA COLI KNK 437. Described as above. In kind it is cell-based. The conditions noted are these: BHI agar.
In series [9] the test system is PSEUDOMONAS AERUGINOSA A5007. Described as above. The format is cell-based. The conditions noted are these: BHI agar.
The subject of series [10] is STREPTOCOCCUS BOVIS A5169. Described as above. In kind it is cell-based. The conditions noted are these: BHI agar.
The test system of series [11] is STREPTOCOCCUS PYOGENES EES61. Described as above. The conditions noted are these: BHI agar. In kind it is cell-based.
Series [12] concerns ACINETOBACTER SP CMX 669. The series is described as above. In kind it is cell-based. The conditions noted are these: BHI agar.
Series [13] deals with PSEUDOMONAS CEPACIA 2961. Described as above. The conditions noted are these: BHI agar. In kind it is cell-based.
For series [14], the system named is PSEUDOMONAS AERUGINOSA BMH10. The description is as above. The format is cell-based. The conditions noted are these: BHI agar.
The test system of series [15] is STREPTOCOCCUS AGALACTIAE CMX 508. The description is as above. The format is cell-based. The conditions noted are these: BHI agar.
Series [16] relates to E. Coli Juhl. In words: Acute mouse protection test. In kind it is in vivo. The conditions noted are these: mice infected intraperitoneally with E. Coli JUHL, dosed at 1 and 5 hours post-infection.
Series [17] has as its system STREPTOCOCCUS PYOGENES 930 CONST. Kind of series: In vitro antibacterial activity, agar dilution MIC (BHIA). In kind it is cell-based. The conditions noted are these: BHI agar.
For series [18], the system named is Stap. Aureus NCTC 10649. Kind of series: Acute mouse protection test. The format is in vivo. The conditions noted are these: mice infected intraperitoneally with Stap. Aureus NCTC 10649, dosed at 1 and 5 hours post-infection.
For series [19], the system named is KLEBSIELLA PNEUMONIAE ATCC 8045. Kind of series: In vitro antibacterial activity, agar dilution MIC (BHIA). The format is cell-based. The conditions noted are these: BHI agar.
Series [20] has as its system ESCHERICHIA COLI SS. The description is as above. The conditions noted are these: BHI agar. The format is cell-based. The text has this: (§1) The MIC results are in μg/ml.
Series [21] concerns ESCHERICHIA COLI DC-2. The description is as above. The format is cell-based. The conditions noted are these: BHI agar.
Description: as §1

Series [22] concerns ESCHERICHIA COLI H560. The series is described as above. In kind it is cell-based. The conditions noted are these: BHI agar.
Description: as §1

Series [23] has as its system PROVIDENCIA STUARTII CMX 640. The series is described as above. The conditions noted are these: BHI agar. In kind it is cell-based.
In series [24] the test system is P. Aeruginosa A5007. Kind of series: Acute mouse protection test. The format is in vivo. The conditions noted are these: mice infected intraperitoneally with P. Aeruginosa A5007, dosed at 1 and 5 hours post-infection.
The subject of series [25] is ENTEROCOCCUS FAECIUM ATCC 8043. Kind of series: In vitro antibacterial activity, agar dilution MIC (BHIA). In kind it is cell-based. The conditions noted are these: BHI agar.
Series [26] can be described thus: Aqueous solubility (water and pH 7.4). The conditions noted are these: the sign > refers to an approximate value, solubility may be within 10% higher.
Setting [27] is: STREPTOCOCCUS AGALACTIAE CMX 508.

In brackets after ≈: the same amount, converted by molar mass.

A word on the MIC: it is the smallest concentration in the dilution series that meets the test's criterion for growth inhibition. A low value points to greater potency. As for `Cl.NCC(=O)N[C@@H](Cc1ccccc1)C(=O)NC1CCN(c2nc3c(cc2F)c(=O)c(C(=O)O)cn3-c2ccc(F)cc2F)C1` (stereo partly drawn) [Example 1b, 7-[(3-Gly-L-Phe-amino)-1-pyrrolidinyl]-1-(2,4-difluorophenyl)-6-fluoro-1,4-dihydro-4-oxo-1,8-naphthyridine-3-carboxyli c acid hydrochloride], the MIC in series [1] was 25 µg/mL; in series [2] it was 6.25 µg/mL; in [3] it was 3.12 µg/mL; in series [4], “.78 µg/mL”; in series [5], 12.5 µg/mL; in series [6] it was “.78 µg/mL”. The MIC in series [7] was found to be 12.5 µg/mL; in series [8], 25 µg/mL; in [9], 25 µg/mL; in series [10] (STR[…] A5169) it was 1.56 µg/mL; in series [11] (STR[…] EES61), 1.56 µg/mL; in series [12], 12.5 µg/mL. The minimum inhibitory concentration (MIC) in series [13] is 50 µg/mL; in series [14] it was 25 µg/mL; in series [15] (STR[…] 508), 1.56 µg/mL; in series [17], “.78 µg/mL”; in [19], 12.5 µg/mL; in series [20] it was “.2 µg/mL”. The MIC in [21] was found to be 100 µg/mL; in series [22], 1.56 µg/mL; in [23], 100 µg/mL; in series [25] (EN[…] ATCC 8043), 1.56 µg/mL. The “Oral (ED50)” value in [16] is recorded as 1.8 mg/kg/day; in series [18], 0.7 mg/kg/day; in series [24] it was 27.3 mg/kg/day.

On to “7-[3-Norvaline-amino-1-pyrrolidinyl]-1-(2,4-difluoro-phenyl)- 6-fluoro-1,4-dihydro-4-oxo-1,8-naphthyridine-3-carboxylic acid hydrochloride [Example 2b]”, for which the MIC in series [1] is 6.2 µg/mL; in series [2], 25 µg/mL; in [3] it was “.78 µg/mL”; in series [4] it was “.39 µg/mL”; in series [5], “.39 µg/mL”; in series [6], 25 µg/mL. The minimum inhibitory concentration (MIC) in [7] came to 3.1 µg/mL; in series [8] it was 6.2 µg/mL; in series [9], 12.5 µg/mL; in [10] (STREPTOCOCCUS BOVIS A5169), 1.56 µg/mL; in [11] (STREPTOCOCCUS PYOGENES EES61), 1.56 µg/mL; in series [12] it was 3.1 µg/mL. The MIC in series [13] is 50 µg/mL; in [14] it was 6.2 µg/mL; in series [15] (setting [27]), 1.56 µg/mL; in [17], “.78 µg/mL”; in series [19] it was “.39 µg/mL”; in series [20] it was “.02 µg/mL”. Also, the MIC is 12.5 µg/mL in [21], “.78 µg/mL” in series [22], 50 µg/mL in series [23] and “.78 µg/mL” in series [25] (ENTEROCOCCUS FAECIUM ATCC 8043).

As to `CCC[C@H](NC(=O)[C@H](C)N)C(=O)NC1CCN(c2nc3c(cc2F)c(=O)c(C(=O)O)cn3-c2ccc(F)cc2F)C1` (stereo partly shown) [Example 55b, 7-(3-Ala-Nval-amino-1-pyrrolidinyl)-6-fluoro-1-(2,4-difluorophenyl)-1,4-di hydro-4-oxo-1,8-naphthyridine-3-carboxylic acid], the “Water Solubility” value in series [26] was found to be 26 mg/mL.

As for `CC(N)C(=O)NC(C)C(=O)NC1CCN(c2nc3c(cc2F)c(=O)c(C(=O)O)cn3-c2ccc(F)cc2F)C1` (stereo not shown) [Example 15], the minimal inhibitory concentration (MIC) was 50 µg/mL (≈ 91.5 µM) in series [1]; greater than 100 µg/mL in series [2]; 3.1 µg/mL (≈ 5.67 µM) in series [5]; 100 µg/mL (≈ 183 µM) in [6]; 25 µg/mL (≈ 45.7 µM) in series [7]; 50 µg/mL (≈ 91.5 µM) in series [8]. The minimum inhibitory concentration (MIC) was 100 µg/mL (≈ 183 µM) in series [9]; 50 µg/mL (≈ 91.5 µM) in series [10] (STREPTOCOCCUS BOVIS A5169); 50 µg/mL (≈ 91.5 µM) in [13]; 100 µg/mL (≈ 183 µM) in series [14]; “.39 µg/mL” in [20]; 100 µg/mL (≈ 183 µM) in series [21]. Further, the MIC was 6.2 µg/mL (≈ 11.3 µM) in series [22], 100 µg/mL (≈ 183 µM) in [23] and 50 µg/mL (≈ 91.5 µM) in series [25] (ENTEROCOCCUS FAECIUM ATCC 8043). Moreover, the “Oral (ED50)” value was determined as 2.0 mg/kg/day in series [16], 1.3 mg/kg/day in series [18] and 9.1 mg/kg/day in series [24].

Consider `NC(Cc1ccccc1)C(=O)NC1CCN(c2nc3c(cc2F)c(=O)c(C(=O)O)cn3-c2ccc(F)cc2F)C1` (stereo not shown) [Example 5], for which the MIC in [1] is 25 µg/mL (≈ 45.3 µM); in [2], 25 µg/mL (≈ 45.3 µM); in [3], 3.1 µg/mL (≈ 5.62 µM); in series [4], “.78 µg/mL”; in series [8], 100 µg/mL (≈ 181 µM); in [9], 50 µg/mL (≈ 90.7 µM). In addition, the minimal inhibitory concentration (MIC) is 6.2 µg/mL (≈ 11.2 µM) in series [10] (STREPTOCOCCUS BOVIS A5169); 3.1 µg/mL (≈ 5.62 µM) in series [11] (STREPTOCOCCUS PYOGENES EES61); greater than 100 µg/mL in series [13]; 25 µg/mL (≈ 45.3 µM) in series [14]; 3.1 µg/mL (≈ 5.62 µM) in series [15] (setting [27]); “.1 µg/mL” in series [20]. Moreover, the minimal inhibitory concentration (MIC) was 50 µg/mL (≈ 90.7 µM) in [21], 3.1 µg/mL (≈ 5.62 µM) in [22], greater than 100 µg/mL in series [23] and 3.1 µg/mL (≈ 5.62 µM) in series [25] (ENTEROCOCCUS FAECIUM ATCC 8043). Besides, the “Oral (ED50)” value in series [16] is on record as 3.5 mg/kg/day; in [18] it was 3.6 mg/kg/day.

For `NC1CCN(c2nc3c(cc2F)c(=O)c(C(=O)O)cn3-c2ccc(F)cc2)C1` (stereo not shown) [compound A, 7-(3-amino-1-pyrrolidinyl)-6-fluoro-1-(4-fluorophenyl)-1,4-dihydro-4-oxo-1 ,8-naphthyridine-3-carboxylic acid, reference compound], the “Water Solubility” value in [26] amounted to 1.4 mg/mL.
